Measurements from PubChem BioAssay AID256 (DTP/NCI, 2004).
Toxic doses and inconclusive results are not listed. The calls were made as follows: active = survival T/C of 150% or more; inactive = T/C below 125% in these data. Non-standard residues stand in square brackets, D forms with d. Residues, ends and D or L forms follow the SMILES beside them. ξ: configuration not given here. *: point of attachment. Cbz = O=C(OCc1ccccc1)*; ξP = O=C(O)C1CCCN1

Tested on: CD2F1 mice, L1210 leukemia ip, survival T/C
Assay: NCI In Vivo Anticancer Drug Screen. Data for tumor model L1210 Leukemia (intraperitoneal) in CD2F1 (CDF1) mice
Details: higher = longer survival
Procedure, shortened: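 Implant tumor; dose compound or vehicle; measure endpoint in both groups; report treated divided by control.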

[1] = endpoint: mean survival time, dose: 100.0 mg/kg/injection, schedule: Q04DX003 (ip), vehicle: saline with Tween-80
[2] = endpoint: mean survival time, dose: 200.0 mg/kg/injection, schedule: Q04DX003 (ip), vehicle: saline with Tween-80
[3] = endpoint: mean survival time, dose: 50.0 mg/kg/injection, schedule: Q01DX009 (ip), vehicle: saline with Tween-80
[4] = endpoint: mean survival time, dose: 100.0 mg/kg/injection, schedule: Q01DX009 (ip), vehicle: saline with Tween-80
[5] = endpoint: mean survival time, dose: 200.0 mg/kg/injection, schedule: Q01DX009 (ip), vehicle: saline with Tween-80
[6] = endpoint: mean survival time, dose: 25.0 mg/kg/injection, schedule: Q01DX009 (ip), vehicle: saline with Tween-80
[7] = endpoint: mean survival time, dose: 25.0 mg/kg/injection, schedule: Q04DX003 (ip), vehicle: saline with Tween-80
[8] = endpoint: mean survival time, dose: 50.0 mg/kg/injection, schedule: Q04DX003 (ip), vehicle: saline with Tween-80
[9] = endpoint: mean survival time, dose: 100.0 mg/kg/injection, schedule: Q01DX001 (ip), vehicle: saline with Tween-80
[10] = endpoint: mean survival time, dose: 200.0 mg/kg/injection, schedule: Q01DX001 (ip), vehicle: saline with Tween-80
[11] = endpoint: mean survival time, dose: 400.0 mg/kg/injection, schedule: Q01DX001 (ip), vehicle: saline with Tween-80
[12] = endpoint: mean survival time, dose: 400.0 mg/kg/injection, schedule: Q01DX009 (ip), vehicle: saline with Tween-80
[13] = endpoint: mean survival time, dose: 75.0 mg/kg/injection, schedule: Q01DX001 (ip), vehicle: saline
[14] = endpoint: mean survival time, dose: 150.0 mg/kg/injection, schedule: Q01DX001 (ip), vehicle: saline
[15] = endpoint: mean survival time, dose: 300.0 mg/kg/injection, schedule: Q01DX001 (ip), vehicle: saline
[16] = endpoint: mean survival time, dose: 400.0 mg/kg/injection, schedule: Q04DX003 (ip), vehicle: saline with Tween-80

Measured: T/C

CNc1nc(NC)nc(NC)n1
inactive: endpoint: mean survival time, dose: 12.5 mg/kg/injection, schedule: Q01DX009 (ip), vehicle: Klucel (hydroxypropylcellulose) (HPC) 95 % of control | endpoint: mean survival time, dose: 25.0 mg/kg/injection, schedule: Q01DX009 (ip), vehicle: Klucel (hydroxypropylcellulose) (HPC) 97 % of control | endpoint: mean survival time, dose: 50.0 mg/kg/injection, schedule: Q01DX009 (ip), vehicle: Klucel (hydroxypropylcellulose) (HPC) 97 % of control | endpoint: mean survival time, dose: 100.0 mg/kg/injection, schedule: Q01DX009 (ip), vehicle: Klucel (hydroxypropylcellulose) (HPC) 100 % of control | endpoint: mean survival time, dose: 200.0 mg/kg/injection, schedule: Q01DX009 (ip), vehicle: Klucel (hydroxypropylcellulose) (HPC) 103 % of control

COc1ccc(/C=C2\SC(=O)NC2=O)cc1
inactive: [1] 102 % of control | [2] 100 % of control

O=C(Nc1c(Cl)cccc1Cl)OCCOc1ccccc1Cl
inactive: [3] 98 % of control | [4] 98 % of control | [5] 98 % of control

COc1ccc(C(CC(=O)c2ccccc2)CC(=O)c2ccccc2)cc1
inactive: [6] 94 % of control | [7] 101 % of control | [3] 96 % of control | [8] 93 % of control | [1] 87 % of control

CC(=NCC(C)N=C(C)c1ccccc1O)c1ccccc1O.[Ni] (centres undefined)
inactive: endpoint: mean survival time, dose: 50.0 mg/kg/injection, schedule: Q04DX002 (ip), vehicle: saline with Tween-80 109 % of control | endpoint: mean survival time, dose: 100.0 mg/kg/injection, schedule: Q04DX002 (ip), vehicle: saline with Tween-80 97 % of control | endpoint: mean survival time, dose: 200.0 mg/kg/injection, schedule: Q04DX002 (ip), vehicle: saline with Tween-80 97 % of control | endpoint: mean survival time, dose: 400.0 mg/kg/injection, schedule: Q04DX002 (ip), vehicle: saline with Tween-80 97 % of control

OCC1CC2c3[nH]c4ccccc4c3CCN2C1 (centres undefined)
inactive: endpoint: mean survival time, dose: 20.0 mg/kg/injection, schedule: Q01DX001 (ip), vehicle: saline with Tween-80 95 % of control | endpoint: mean survival time, dose: 40.0 mg/kg/injection, schedule: Q01DX001 (ip), vehicle: saline with Tween-80 90 % of control | endpoint: mean survival time, dose: 80.0 mg/kg/injection, schedule: Q01DX001 (ip), vehicle: saline with Tween-80 93 % of control

O=C(CNC(=O)OCc1ccccc1)NCC(=O)N1CCCC1C(=O)O (stereo not drawn) (Cbz-Gly-Gly-[ξP]-OH)
inactive: endpoint: mean survival time, dose: 100.0 mg/kg/injection, schedule: Q04DX003 (ip), vehicle: saline 98 % of control | endpoint: mean survival time, dose: 200.0 mg/kg/injection, schedule: Q04DX003 (ip), vehicle: saline 96 % of control | endpoint: mean survival time, dose: 400.0 mg/kg/injection, schedule: Q04DX003 (ip), vehicle: saline 101 % of control

O=C1OCC2CC=CCC12 (centres undefined)
inactive: endpoint: mean survival time, dose: 50.0 mg/kg/injection, schedule: Q01DX001 (ip), vehicle: carboxymethylcellulose (CMC) 92 % of control | endpoint: mean survival time, dose: 100.0 mg/kg/injection, schedule: Q01DX001 (ip), vehicle: carboxymethylcellulose (CMC) 100 % of control | endpoint: mean survival time, dose: 200.0 mg/kg/injection, schedule: Q01DX001 (ip), vehicle: carboxymethylcellulose (CMC) 92 % of control | endpoint: mean survival time, dose: 400.0 mg/kg/injection, schedule: Q01DX001 (ip), vehicle: carboxymethylcellulose (CMC) 97 % of control

Cc1ccc(S(=O)(=O)Nc2ccccc2OCCOCCOc2ccccc2NS(=O)(=O)c2ccc(C)cc2)cc1
inactive: [9] 103 % of control | [10] 91 % of control | [11] 95 % of control

ClC(Cl)=[C](Cl)[Hg][C](Cl)=C(Cl)Cl
inactive: endpoint: mean survival time, dose: 6.25 mg/kg/injection, schedule: Q01DX009 (ip), vehicle: saline with Tween-80 93 % of control

COC(=O)N/N=C\c1ccc(O)c(OC)c1
inactive: [4] 104 % of control | [5] 104 % of control | [12] 97 % of control

N#CC(/C=C/c1ccccc1)Nc1ccccc1N (centres undefined)
inactive: [4] 98 % of control | [5] 95 % of control | [12] 93 % of control

CCCCCCCCCCCCCCCCC(C(=O)O)C(O)(CC(=O)O)C(=O)O (centres undefined)
inactive: [6] 90 % of control | [3] 88 % of control

COc1ccc(OCCOC(=O)Nc2ccc(Cl)cc2OC)cc1
inactive: [3] 89 % of control | [4] 93 % of control | [5] 93 % of control

ClCC(Cl)CN(Cc1ccccc1)Cc1ccccc1 (centres undefined)
inactive: [9] 102 % of control | [4] 102 % of control | [10] 93 % of control | [5] 104 % of control | [11] 98 % of control

CC(=O)NC1=C(Sc2ccc(C)cc2)C(=O)c2ccccc2C1=O
inactive: [13] 96 % of control | [14] 98 % of control | [15] 108 % of control

CC(=O)C1C(=O)OC2(C)C(=O)C3=COC(/C=C\C(C)=C/C(C)C)=CC3=CC12 (centres undefined)
inactive: [4] 100 % of control | [5] 104 % of control | [2] 91 % of control | [12] 111 % of control | [16] 88 % of control

CSc1nc(NC2OCC(O)C(O)C2O)c(I)c(=O)[nH]1 (centres undefined)
inactive: endpoint: median survival time, dose: 12.5 mg/kg/injection, schedule: Q01DX005 (ip), vehicle: saline with Tween-80 100 % of control | endpoint: median survival time, dose: 25.0 mg/kg/injection, schedule: Q01DX005 (ip), vehicle: saline with Tween-80 100 % of control | endpoint: median survival time, dose: 50.0 mg/kg/injection, schedule: Q01DX005 (ip), vehicle: saline with Tween-80 103 % of control | endpoint: median survival time, dose: 100.0 mg/kg/injection, schedule: Q01DX005 (ip), vehicle: saline with Tween-80 107 % of control | endpoint: median survival time, dose: 200.0 mg/kg/injection, schedule: Q01DX005 (ip), vehicle: saline with Tween-80 107 % of control

C/[N+]([O-])=C/C1OC(n2ccc(=O)[nH]c2=O)C2OC(C)(C)OC12 (centres undefined)
inactive: endpoint: median survival time, dose: 21.38 mg/kg/injection, schedule: Q01DX005 (ip), vehicle: saline 106 % of control | endpoint: median survival time, dose: 42.75 mg/kg/injection, schedule: Q01DX005 (ip), vehicle: saline 100 % of control | endpoint: median survival time, dose: 85.5 mg/kg/injection, schedule: Q01DX005 (ip), vehicle: saline 100 % of control | endpoint: median survival time, dose: 171.0 mg/kg/injection, schedule: Q01DX005 (ip), vehicle: saline 107 % of control

O=C1C(Cl)=C(NCc2ccc(Cl)cc2)C(=O)c2ccccc21
inactive: [7] 102 % of control | [8] 91 % of control | [1] 91 % of control

NNC(=O)c1cccc([N+](=O)[O-])c1
inactive: [13] 109 % of control

O=C(O)CCCCCCCCCCCCCCCCCCCCC(=O)O
inactive: [1] 87 % of control | [2] 102 % of control | [16] 87 % of control

COc1ccc(-c2nc3cc(Cl)ccc3c(=O)o2)cc1
inactive: [1] 88 % of control | [2] 91 % of control | [16] 88 % of control

CC(=O)CCN1Cc2cc3c(cc2C(O)C1)OCO3 (centres undefined)
inactive: [13] 104 % of control | [14] 97 % of control | [15] 95 % of control

c1ccc(-c2cscc2-c2ccccc2)cc1
inactive: [9] 96 % of control | [10] 96 % of control | [11] 96 % of control

Cc1ccc([N+](=O)[O-])cc1O
inactive: endpoint: mean survival time, dose: 25.0 mg/kg/injection, schedule: Q01DX009 (ip), vehicle: saline 97 % of control | endpoint: mean survival time, dose: 50.0 mg/kg/injection, schedule: Q01DX009 (ip), vehicle: saline 106 % of control | endpoint: mean survival time, dose: 100.0 mg/kg/injection, schedule: Q01DX009 (ip), vehicle: saline 100 % of control

c1ccc2c(c1)[nH]c1c2cc[n+]2cc3c(cc12)CCCC3
inactive: endpoint: mean survival time, dose: 5.0 mg/kg/injection, schedule: Q01DX001 (ip), vehicle: saline 100 % of control | endpoint: mean survival time, dose: 10.0 mg/kg/injection, schedule: Q01DX001 (ip), vehicle: saline 101 % of control | endpoint: mean survival time, dose: 20.0 mg/kg/injection, schedule: Q01DX001 (ip), vehicle: saline 106 % of control | endpoint: mean survival time, dose: 40.0 mg/kg/injection, schedule: Q01DX001 (ip), vehicle: saline 109 % of control

OC(CN1CCOCC1)CN1CCOCC1
inactive: endpoint: mean survival time, dose: 100.0 mg/kg/injection, schedule: Q01DX001 (ip), vehicle: saline 104 % of control | endpoint: mean survival time, dose: 200.0 mg/kg/injection, schedule: Q01DX001 (ip), vehicle: saline 104 % of control | endpoint: mean survival time, dose: 400.0 mg/kg/injection, schedule: Q01DX001 (ip), vehicle: saline 103 % of control

CCCCCCCCCCCCCCCC(CCCCCC)CCCCCC
inactive: endpoint: mean survival time, dose: 100.0 mg/kg/injection, schedule: Q01DX001 (ip), vehicle: saline sonified 102 % of control | endpoint: mean survival time, dose: 200.0 mg/kg/injection, schedule: Q01DX001 (ip), vehicle: saline sonified 98 % of control | endpoint: mean survival time, dose: 400.0 mg/kg/injection, schedule: Q01DX001 (ip), vehicle: saline sonified 102 % of control

CC(C)(C)CC(C)(C)c1ccc(O)cc1O
inactive: [6] 105 % of control | [3] 103 % of control | [9] 101 % of control | [4] 94 % of control
